# Measurements from patent US12396961B2, “Compounds and compositions for intracellular delivery of agents” (ModernaTX, Inc., priority 2015, dated 2025).
# Assay: Particle size and polydispersity index (Zetasizer Nano ZS)
# Type: physicochemical
# Text: Nanoparticle compositions may be characterized by a variety of methods. For example, microscopy (e.g., transmission electron microscopy or scanning electron microscopy) may be used to examine the morphology and size distribution of a nanoparticle composition. Dynamic light scattering or potentiometry (e.g., potentiometric titrations) may be used to measure zeta potentials. Dynamic light scattering may also be utilized to determine particle sizes. Instruments such as the Zetasizer Nano ZS (Malvern Instruments Ltd, Malvern, Worcestershire, UK) may also be used to measure multiple characteristics of a nanoparticle composition, such as particle size, polydispersity index, and zeta potential.
# A Zetasizer Nano ZS (Malvern Instruments Ltd, Malvern, Worcestershire, UK) can be used to determine the particle size, the polydispersity index (PDI) and the zeta potential of the nanoparticle compositions in 1×PBS in determining particle size and 15 mM PBS in determining zeta potential.
# [1] = Table 1, DOPE 40:20:38.5:1.5, Luc mRNA
# [2] = Table 1, marked *: lipid:DSPC:Chol:PEG-DMG 50:10:38.5:1.5
Compound,PDI (Table 20-1),PDI [1],also measured
"CCCCC/C=C\C/C=C\CCCCCCCCN(CCCCCCCC/C=C\C/C=C\CCCCC)CCN(CCO)CCCCCCCCCCCC [Compound 20-13, 2-((2-(Di((9Z,12Z)-octadeca-9,12-dien-1-yl)amino)ethyl)(dodecyl)amino)ethan-1-ol]",0.057,,
"CCCCCCCCCCCCN(CCO)CCN(CCCCCCCCCCCC)CCCCCC(=O)OCCCCCCC [Compound 20-7, Heptyl 6-(dodecyl(2-(dodecyl(2-hydroxyethyl)amino)ethyl)amino)hexanoate]",0.170,,
"CCCCCCCCCN(CCCCCCCCC)CCN(CCO)CCCCCC(=O)OCCCCC [Compound 20-6, Pentyl 6-((2-(dinonylamino)ethyl)(2-hydroxyethyl)amino)hexanoate]",0.220,,
"CCCCCCCCCCCCN(CCCCCCCCCCCC)CCN(CCO)CCCCCC(=O)OCCCCC [Compound 20-3, Pentyl 6-((2-(didodecylamino)ethyl)(2-hydroxyethyl)amino)hexanoate]",0.110,,
"CCCCCCCCCN(CCCCCCCCC)CCN(CCCCCCCCC)CCN1CCN(CCN(CCCCCCCCC)CCCCCCCCC)CC1 [Compound 18, N^1-(2-(4-(2-(Dinonylamino)ethyl)piperazin-1-yl)ethyl)-N^1,N^2,N^2-trinonylethane-1,2-diamine]",,0.120,
"CCCCCCCCCN(CCCCCCCCC)CCN(CCCCCCCCC)CCN1CCNCC1 [Compound 36, N^1,N^1,N^2-Trinonyl-N^2-(2-(piperazin-1-yl)ethyl)ethane-1,2-diamine]",,,PDI [2]: 0.110
"CCCCCCCCCCCCCCN(CCO)CCN(CCCCCCCCCCCC)CCCCCCCCCCCC [Compound 20-24, 2-((2-(Didodecylamino)ethyl)(tetradecyl)amino)ethan-1-ol]",0.038,,
"CCCCCCCOC(=O)CCCCCN(CCO)CCN(CCCCCC(=O)OCCCCCCC)CCCCCC(=O)OCCCCCCC [Compound 20-5, Diheptyl 6,6′-((2-((6-(heptyloxy)-6-oxohexyl)(2 hydroxyethyl)amino)ethyl)azanediyl)dihexanoate]",0.210,,
"CCCCCCCCCCCCN(CCO)CCN(CCCCCCCCC)CCCCCCCCC [Compound 20-18, 2-((2-(Dinonylamino)ethyl)(dodecyl)amino)ethan-1-ol]",0.150,,
"CCCCC/C=C\C/C=C\CCCCCCCCN(CCCCCCCC/C=C\C/C=C\CCCCC)CCN(CCCCCCCC/C=C\C/C=C\CCCCC)CCN1CCN(CCN(CCCCCCCCCCCC)CCCCCCCCCCCC)CC1 [Compound 34, N^1-(2-(4-(2-(Didodecylamino)ethyl)piperazin-1-yl)ethyl)-N^1,N^2,N^2-tri((9Z,12Z)-octadeca-9,12-dien-1-yl)ethane-1,2-diamine]",,,PDI [2]: 0.077
"CCCCCCCCCCCCCCN(CCCCCCCCCCCCCC)CCN(CCCCCCCCCCCCCC)CCN1CCN(CCN(CCCCCCCCCCCC)CCCCCCCCCCCC)CC1 [Compound 31, N^1-(2-(4-(2-(Didodecylamino)ethyl)piperazin-1-yl)ethyl)-N^1,N^2,N^2 tritetradecylethane-1,2-diamine]",,0.130,
"CCCCCCCCCCCCN(CCO)CCN(CCCCCCCC(=O)OCCCCCCCCC)CCCCCCCC(=O)OCCCCCCCCC [Compound 20-10, Dinonyl 8,8′-((2-(dodecyl(2-hydroxyethyl)amino)ethyl)azanediyl)dioctanoate]",0.130,,
"CCCCCCCCCCCCN(CCCCCCCCCCCC)CCN(CCCCCCCCCCCC)CCN1CCN(CCN(CCCCCCCC)CCCCCCCC)CC1 [Compound 22, N^1-(2-(4-(2-(Dioctylamino)ethyl)piperazin-1-yl)ethyl)-N^1,N^2,N^2-tridodecylethane-1,2-diamine]",,,PDI (formulated with hEPO mRNA): 0.130
"CCCCCCCCCCCCN(CCO)CCN(CCCCCC(=O)OCCCCC)CCCCCC(=O)OCCCCC [Compound 20-4, Dipentyl 6,6′-((2-(dodecyl(2-hydroxyethyl)amino)ethyl)azanediyl)dihexanoate]",0.160,,
"CCCCCCCCCCCCN(CCCCCCCCCCCC)CCN1CCN(CCN(CCCCCCCCC)CCN(CCCCCCCCC)CCCCCCCCC)CC1 [Compound 19, N^1-(2-(4-(2-(Didodecylamino)ethyl)piperazin-1-yl)ethyl)-N^1,N^2,N^2-trinonylethane-1,2-diamine]",,0.100,
"CCCCC/C=C\C/C=C\CCCCCCCCN(CCCCCCCC/C=C\C/C=C\CCCCC)CCN1CCN(CCN(CCCCCCCCCCCC)CCN(CCCCCCCCCCCC)CCCCCCCCCCCC)CC1 [Compound 29, N^1-(2-(4-(2-(Di((9Z,12Z)-octadeca-9,12-dien-1-yl)amino)ethyl)piperazin-1-yl)ethyl)-N^1,N^2,N^2-tridodecylethane-1,2-diamine]",,0.060,
"CCCCC/C=C\CCCCCN(CCO)CCN(CCCCCCCCCCCC)CCCCCCCCCCCC [Compound 20-23, (Z)-2-((2-(Didodecylamino)ethyl)(dodec-6-en-1-yl)amino)ethan-1-ol]",0.080,,
"CCCCCCCCCCCCN(CCCCCCCCCCCC)CCN1CCN(CCN(CCCCCC)CCN(CCCCCC)CCCCCC)CC1 [Compound 17, N^1-(2-(4-(2-(Didodecylamino)ethyl)piperazin-1-yl)ethyl)-N^1,N^2,N^2-trihexylethane-1,2-diamine]",,0.180,
"CCCCCCCCCCCCN(CCCCCCCCCCCC)CCN(CCO)CCCCCCCC(=O)OC(CCCCCCCC)CCCCCCCC [Compound 20-9, Heptadecan-9-yl 8-((2-(didodecylamino)ethyl)(2-hydroxyethyl)amino)octanoate]",0.130,,
"CCCCCCCCCCCCN(CCCCCCCCCCCC)CCN(CCCCCCCCCCCC)CC(=O)O [Compound 20-1, N-(2-(Didodecylamino)ethyl)-N-dodecylglycine]",,,"PDI (Table 20-1, row marked *: formulated with DOPE): 0.078"
"CCCCCCCCCCCCN(CCCCCCCCCCCC)CCN(CCCCCCCCCCCC)CCN1CCN(CCN(CCCCCCCCCCCC)CCCCCCCCCCCC(=O)OC)CC1 [Compound 15, Methyl 12-((2-(4-(2-((2-(didodecylamino)ethyl)(dodecyl)amino)ethyl)piperazin-1-yl)ethyl)(dodecyl)amino)dodecanoate]",,,PDI (formulated with hEPO mRNA): 0.120
"CCCCCCCCCCCCCCN(CCCCCCCCCCCCCC)CCN(CCCCCCCCCCCCCC)CCN1CCN(CCN(CCCCCCCCC)CCCCCCCCC)CC1 [Compound 30, N^1-(2-(4-(2-(Dinonylamino)ethyl)piperazin-1-yl)ethyl)-N^1,N^2,N^2-tritetradecylethane-1,2-diamine]",,0.110,"Size (nm) (Table 1, lipid:DOPE:Chol:PEG-DMG 40:20:38.5:1.5, Luc mRNA, MC3 standard formulation): 95.0 nm"
"CCCCCCCC/C=C\CCCCCCCCN(CCCCCCCC/C=C\CCCCCCCC)CCN(CCCCCCCC/C=C\CCCCCCCC)CCN1CCNCC1 [Compound 40, N^1,N^1,N^2-Tri((Z)-octadec-9-en-1-yl)-N^2-(2-(piperazin-1-yl)ethyl)ethane-1,2-diamine]",,,PDI [2]: 0.210
"CCCCC/C=C\C/C=C\CCCCCCCCN(CCCCCCCC/C=C\C/C=C\CCCCC)CCN(CCCCCCCC/C=C\C/C=C\CCCCC)CCN1CCNCC1 [Compound 41, N^1,N^1,N^2-Tri((9Z,12Z)-octadeca-9,12-dien-1-yl)-N^2-(2-(piperazin-1-yl)ethyl)ethane-1,2-diamine]",,,Size (nm) [2]: 69.0 nm
"CCCCCCCCCCCCN(CCCCCCCCCCCC)CCN(CCCCCCCCCCCC)CCN1CCN(C(=O)CN(CCCCCCCCCCCC)CCCCCCCCCCCC)CC1 [Compound 3, 2-(Didodecylamino)-1-(4-(2-((2-(didodecylamino)ethyl)(dodecyl)amino)ethyl)piperazin-1-yl)ethan-1-one]",,0.044,
"CCCCCCCCCCCCCCN(CCCCCCCCCCCCCC)CCN(CCCCCCCCCCCCCC)CCN1CCN(CCN(CCCCCCCCCCCCCC)CCCCCCCCCCCCCC)CC1 [Compound 32, N^1-(2-(4-(2-(Ditetradecylamino)ethyl)piperazin-1-yl)ethyl)-N^1,N^2,N^2 tritetradecylethane-1,2-diamine]",,0.160,
"CCCCCCCC/C=C\CCCCCCCCN(CCCCCCCC/C=C\CCCCCCCC)CCN1CCN(CCN(CCCCCCCCCCCC)CCN(CCCCCCCCCCCC)CCCCCCCCCCCC)CC1 [Compound 28, N^1-(2-(4-(2-(Di((Z)-octadec-9-en-1-yl)amino)ethyl)piperazin-1-yl)ethyl)-N^1,N^2,N^2-tridodecylethane-1,2-diamine]",,0.099,
"CCCCCCCCCCCCN(CCCCCCCCCCCC)CCN(CCO)CCCCCCCCC [Compound 20-17, 2-((2-(didodecylamino)ethyl)(nonyl)amino)ethan-1-ol]",0.092,,
"CCCCCCCCCCCCN(CCO)CCN(CCCCCCCCCCCC)CCCCCC(=O)OCCCCC [Compound 20-2, Pentyl 6-(dodecyl(2-(dodecyl(2-hydroxyethyl)amino)ethyl)amino)hexanoate]",0.130,,
"CCCCCCCCCCCCCCN(CCCCCCCCCCCCCC)CCN(CCCCCCCCCCCCCC)CCN1CCN(CCN(CCCCCCCCCCCC)CCCCCC(=O)OCCCCC)CC1 [Compound 13, Pentyl 6-((2-(4-(2-((2-(ditetradecylamino)ethyl)(tetradecyl)amino)ethyl)piperazin-1-yl)ethyl)(dodecyl)amino)hexanoate]",,0.080,
